Each structure is given as a SMILES string. Several values for one entry are separate records, joined by “and”; a condition that tells them apart may be missing. Equal values may be shown once.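 Step 1: Grow cells in 96-well plates. Step 2: Expose to compound for 48 hours at 5 concentrations. Step 3: Interpolate endpoints linearly; if unreached, use highest concentration. Here, GI50 denotes the concentration required for 50% inhibition of growth. The concentration for full growth arrest is given as TGI.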

Some test systems named below: A549 NSCLC; DMS 273 small cell lung; SF-539 CNS; LOX IMVI melanoma; MDA-MB-435; NCI-H23 lung; KM12 colon; KM20L2 colon; TK-10 renal; OVCAR-4 ovarian.
Holding throughout (experiment): NCI anticancer screen, dose series, 48 h

As for `Nc1nc(=S)c2[nH]cnc2[nH]1`, the GI50 with A549 NSCLC was 2.29 µM and 4.7 µM and 5.85 µM; in the assay with SF-539 CNS, 0.483 µM and 0.606 µM and 1.41 µM; in the assay on LOX IMVI melanoma, 0.136 µM and 0.488 µM; in the assay on MDA-MB-435, 0.349 µM and 0.552 µM; in the assay with NCI-H23 lung, 0.481 µM and 3.07 µM; with KM12 colon, 0.816 µM and 3.25 µM and 3.14 µM. The GI50 with TK-10 renal is 0.375 µM and 0.542 µM and 1.26 µM; in the assay with OVCAR-4 ovarian, 0.573 µM and 4.99 µM. For the same compound, the TGI was > 57.7 µM and 105 µM and 85.1 µM in the assay on A549 NSCLC; 39.1 µM in the assay on DMS 273 small cell lung; 68.8 µM [middle of 4 runs] in the assay on SF-539 CNS; 2.23 µM and 8.64 µM and 19.4 µM in the assay with LOX IMVI melanoma; 67.4 µM in the assay with KM20L2 colon; 41.3 µM and 67.7 µM and 9.02 µM in the assay with TK-10 renal. In the assay with OVCAR-4 ovarian, the TGI is > 100 µM and 97.4 µM and 109 µM.
Regarding `O=NN(CCCl)C(=O)NC1CCCCC1`, the GI50 was 45.6 µM and 92.2 µM in the assay with A549 NSCLC; 28.2 µM and 76.7 µM in the assay on DMS 273 small cell lung; 16.4 µM and 33 µM with SF-539 CNS; 14.2 µM and 27.9 µM with LOX IMVI melanoma; 116 µM in the assay on NCI-H23 lung; 17.5 µM and 82.1 µM in the assay with KM12 colon. Also, the GI50 in the assay on KM20L2 colon is 34.3 µM and 163 µM; in the assay on TK-10 renal, 28 µM and 87.4 µM; in the assay with OVCAR-4 ovarian it was 20 µM. Moreover, the TGI in the assay with A549 NSCLC is 184 µM and 244 µM; in the assay with DMS 273 small cell lung, 65.1 µM and 124 µM and 170 µM; in the assay on SF-539 CNS it was 34 µM and 84.4 µM and 124 µM; with LOX IMVI melanoma, 52 µM and 56.9 µM and 74.8 µM; with MDA-MB-435, 102 µM; in the assay with NCI-H23 lung, 152 µM and 235 µM. For the same compound, the TGI is 47.4 µM and 158 µM and 200 µM in the assay with KM12 colon; 96.9 µM and 144 µM and 350 µM in the assay with KM20L2 colon; 86.8 µM and 152 µM and 177 µM with TK-10 renal; 90.8 µM and 155 µM and 87.1 µM in the assay with OVCAR-4 ovarian.
Take `Nc1nc(=S)[nH]c(C(=O)Nc2nccs2)c1-c1ccccc1`: the TGI in the assay with A549 NSCLC, with DMS 273 small cell lung, with SF-539 CNS, in the assay with LOX IMVI melanoma, with NCI-H23 lung and with KM12 colon was above 100 µM in each case. Besides, the TGI with KM20L2 colon, with TK-10 renal and in the assay on OVCAR-4 ovarian was above 100 µM throughout.
Take `N#CCCN(CCC#N)c1ccc(C=Nc2ccc(F)cc2)cc1`: the TGI is above 100 µM in the assay on A549 NSCLC; above 100 µM in the assay on DMS 273 small cell lung; above 83.2 µM in the assay on SF-539 CNS; above 100 µM in the assay with LOX IMVI melanoma; above 100 µM in the assay on MDA-MB-435; above 100 µM with NCI-H23 lung. Also, the TGI with KM12 colon is above 100 µM; with KM20L2 colon it was above 100 µM; with TK-10 renal, above 92.6 µM; in the assay on OVCAR-4 ovarian it was above 100 µM.
In the case of `COc1ccc(C(=O)O/N=C2/CCCCC2CN(C)C)cc1` (stereo not given), the TGI in the assay on A549 NSCLC, in the assay with DMS 273 small cell lung, in the assay on SF-539 CNS, with LOX IMVI melanoma, with NCI-H23 lung and in the assay on KM12 colon was above 100 µM in each case. Also, the TGI with KM20L2 colon, in the assay on TK-10 renal and in the assay with OVCAR-4 ovarian was above 100 µM each time.
For `CC1CC(C)C(C(O)CC2CC(=O)N(c3ccccc3)C(=O)C2)C(O)C1` (stereo not given), the TGI in the assay on A549 NSCLC, in the assay with DMS 273 small cell lung, in the assay on SF-539 CNS, in the assay with LOX IMVI melanoma, in the assay with NCI-H23 lung and in the assay on KM12 colon was above 100 µM throughout. Also, the TGI in the assay with KM20L2 colon, with TK-10 renal and in the assay on OVCAR-4 ovarian was above 100 µM throughout.
Take `O=C(CC1=Nc2nnc(-c3nnc4n3C(=O)C(CC(=O)C3CC3)=N4)n2C1=O)C1CC1`: the TGI with A549 NSCLC, in the assay with DMS 273 small cell lung, in the assay with SF-539 CNS, in the assay on LOX IMVI melanoma, with NCI-H23 lung and in the assay with KM12 colon was above 100 µM in each case. The TGI in the assay on KM20L2 colon, in the assay on TK-10 renal and in the assay on OVCAR-4 ovarian was above 100 µM in each case.
For `c1ccc2c3c([nH]c2c1)C1C2CCCCN2C(c2ccncc2)N1CC3` (stereo not given), the TGI with A549 NSCLC, with DMS 273 small cell lung, in the assay on SF-539 CNS, with LOX IMVI melanoma, with NCI-H23 lung and in the assay with KM12 colon was above 100 µM throughout. Further, the TGI was 67.1 µM in the assay with KM20L2 colon and above 100 µM with OVCAR-4 ovarian.
As for `COCC1N=C(c2cc(OC)c(OC)c(OC)c2-c2cc3c(cc2[C@H](C)O)OCO3)O[C@H]1c1ccccc1` (stereo not given in full), the TGI in the assay with A549 NSCLC, with DMS 273 small cell lung, in the assay on SF-539 CNS, in the assay on LOX IMVI melanoma, in the assay on NCI-H23 lung and with KM12 colon was above 100 µM in each case. For the same compound, the TGI with KM20L2 colon, in the assay on TK-10 renal and in the assay on OVCAR-4 ovarian was above 100 µM in each case.
For `[Cl-].[Gd+3].[O-]/N=C(\c1ccccc1)c1ccccn1.[O-]/N=C(\c1ccccc1)c1ccccn1.[O-]/N=C(\c1ccccc1)c1ccccn1`, the GI50 in the assay on A549 NSCLC was 55.2 µM; with DMS 273 small cell lung, 43.8 µM; in the assay on SF-539 CNS, above 100 µM; in the assay with LOX IMVI melanoma, 28.5 µM; with NCI-H23 lung, above 100 µM; in the assay with KM12 colon, 37.3 µM. In addition, the GI50 was 39.7 µM in the assay on KM20L2 colon, 34.9 µM in the assay on TK-10 renal and 43.7 µM with OVCAR-4 ovarian. The TGI is above 100 µM in the assay with A549 NSCLC; above 100 µM with DMS 273 small cell lung; above 100 µM in the assay with SF-539 CNS; 76.5 µM in the assay on LOX IMVI melanoma; above 100 µM in the assay with NCI-H23 lung; above 100 µM with KM12 colon. The TGI in the assay on KM20L2 colon, in the assay on TK-10 renal and in the assay on OVCAR-4 ovarian was above 100 µM each time.

The record behind these values is PubChem BioAssay (NCI).
